Results from paper PMC11359702, “Synthesis and Biochemical Evaluation of Ethanoanthracenes and Related Compounds: Antiproliferative and Pro-Apoptotic Effects in Chronic Lymphocytic Leukemia (CLL)” (Pharmaceuticals, 2024).
Like-named read-outs stand apart in the source and are kept apart here.

How the values were obtained:
SF295 = assay: NCI-60 five-dose assay; format: cell-based; conditions: Homo sapiens, SF-295
Procedure: (§1) A number of our most promising compounds identified through preliminary cell viability testing (23c, 23d, 23f, 23h, 23l, 23m, 23n, 23o, 24f, 24l, 25n and 26n) were selected for NCI drug screening in the 60-cell-line panel. The panel includes nine subcategories based on cancer tissue types, which include leukemia, ovarian, central nervous system, breast, lung, prostate, skin, renal and colon cancer. The compounds were initially assessed in a one-dose assay at a fixed treatment concentration of 10 µM. The compounds selected for further investigation were progressed to a five-dose assay across the concentration ranges of 0.01, 0.1, 1, 10 and 100 µM [72]. The endpoints assessed in the screening protocol were GI50, TGI and LC50 [72].

T-47D = assay: NCI-60 five-dose assay; format: cell-based; conditions: Homo sapiens, T47D
Procedure: as §1

HL-60(TB) = assay: NCI-60 five-dose assay; format: cell-based, human
[1] = tested on: healthy-donor peripheral blood mononuclear cells (PBMCs); assay: Annexin V/PI assay in donor PBMCs; format: cell-based; conditions: 48 h
Source text: Whole blood samples from healthy donors (×5) were isolated, prepared and treated following the protocol previously described. The percentage of apoptosis observed in the treatment of isolated donor PBMCs with nitrovinylethanoanthracene 20a is concentration-dependent (Figure 11A). […] For ethanoanthracene 23a, the percentage of total apoptosis observed is illustrated in Figure 11B. […] The percentage of total apoptosis observed in the treatment of isolated donor PBMCs with the anthracene–chalcone 25n (normalized against vehicle 0.5% v/v DMSO) is illustrated in Figure 11C, and the dose-response behavior was also concentration-dependent, with compound 25n moderately toxic to healthy-donor PBMCs when treated at a 5.00 µM concentration (39%).
The human peripheral blood mononuclear cells (PBMCs) were generated as follows: peripheral blood was obtained from healthy donors (n = 2) after informed consent was received. The blood was then placed into a 50-mL falcon tube and diluted with an equal volume of phosphate-buffered saline (PBS). PBMCs were isolated using density-gradient centrifugation with LymphoPrep, as described previously. The cells were resuspended in RPMI media containing 10% FBS and 1% penicillin/streptomycin (P/S). The cells were counted using a haemocytometer and seeded into 96 well plates at a density of 1 × 10^5 cells/well (200 µL), and they were incubated at 37 °C for 1 h prior to compound treatment. The Annexin V/PI assay was used as a preliminary method of assessing the selective toxicity of the above compounds when compared with a previous alamarBlue cell viability assay in CLL cell lines. The assay was carried out as described above for the Annexin V/PI assay previously described above, and it was completed in triplicate on two independent days. Approval for this study was obtained from the School of Pharmacy and Pharmaceutical Sciences Trinity College Dublin Research Ethics Committee (2020-06-01-MS).

HG-3 cells = conditions: 10 µM
PGA-1 cells = conditions: 10 µM
[2] = HPLC stability study in phosphate buffers; format: physicochemical; conditions: for remaining at 24 h, 14.6 µg/mL / half-life at 14.6 µg/mL: phosphate buffer, 37 °C; for remaining at 24 h, 14.6 µg/mL: HPLC
Outline: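 Compound stock (5 mg in 10 mL 80:20 acetonitrile–water) added to phosphate buffers at pH 4, 7.4 and 9 and held at 37 °C. Sampled over 24 h (0 min to 24 h) and analysed by C18 HPLC with UV detection at 254 nm; single experiments.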

| SMILES | GI50 (SF295) [nM] | GI50 (T-47D) [nM] | GI50 (HL-60(TB); HL-60(TB)) [nM] | GI50 (HL-60(TB); Homo sapiens, HL-60, HL-60(TB)) [nM] | total apoptosis (toxicity) in healthy-donor PBMCs ([1]; 5 µM) [%] | cell viability (HG-3 cells) [%] | cell viability (PGA-1 cells) [%] | recovery at 24 h ([2]; over the pH range studied (pH 4, 7.4 and 9)) [%] | remaining at 24 h, 14.6 µg/mL ([2]; pH 4 buffer, read-out: % remaining 24 h pH 4) [%] | half-life at 14.6 µg/mL ([2]; pH 4 buffer, read-out: Half-life pH 4 (converted)) [h] | remaining at 24 h, 14.6 µg/mL ([2]; pH 7.4 buffer, read-out: % remaining 24 h pH 7.4) [%] | half-life at 14.6 µg/mL ([2]; pH 7.4 buffer, read-out: Half-life pH 7.4 (converted)) [h] | remaining at 24 h, 14.6 µg/mL ([2]; pH 9 buffer, read-out: % remaining 24 h pH 9) [%] | half-life at 14.6 µg/mL ([2]; pH 9 buffer, read-out: Half-life pH 9 (converted)) [h] | total apoptosis (toxicity) in healthy-donor PBMCs ([1]; 1.25–2.5 µM) |
| --- | --- | --- | --- | --- | --- | --- | --- | --- | --- | --- | --- | --- | --- | --- | --- |
| O=C(C=CC12c3ccccc3C(c3ccccc31)C1C(=O)N(c3ccc(Cl)cc3)C(=O)C12)c1ccccn1 (centres unmarked) [Compound 25n, (E)-13-(4-Chlorophenyl)-9-(3-oxo-3-(pyridin-2-yl)prop-1-en-1-yl)-9,10-dihydro-9,10-[3,4]epipyrroloanthracene-12,14-dione] | 379 | 312 | 292 | 290 | 39 | – | – | – | – | – | – | – | – | – | – |
| O=C(/C=C/C12c3ccccc3C(c3ccccc31)C1C(=O)NC(=O)C12)c1ccc(Cl)cc1 (racemic) [Compound 23l, (E)-9-(3-(4-Chlorophenyl)-3-oxoprop-1-en-1-yl)-9,10-dihydro-9,10-[3,4]epipyrroloanthracene-12,14-dione] | – | – | 1470 | – | – | 0.7 | 5 | – | – | – | – | – | – | – | – |
| O=C(C=CC12c3ccccc3C(c3ccccc31)C1C(=O)NC(=O)C12)c1ccc(Br)cc1 (centres unmarked) [Compound 23a, 9-(E)-3-(4-Bromophenyl)-3-oxoprop-1-en-1-yl)-9,10-dihydro-9,10-[3,4]epipyrroloanthracene-12,14-dione] | – | – | – | – | 28 | – | – | < 50 | 3.12 | 13.3 | 1.38 | ~7.5 | 0.48 | ~7.5 | 5–14% |
